Source: patent US9700056B2

What was measured:
Venturia inaequalis = test: Venturia test (apples)/preventive; conditions: Table A, preventive, evaluated 10 days after inoculation
Experimental: After the spray coating has dried on, the plants are inoculated with an aqueous conidia suspension of the causal agent of apple scab (Venturia inaequalis) and then remain for 1 day in an incubation cabinet at approximately 20° C. and a relative atmospheric humidity of 100%.
The plants are then placed in a greenhouse at approximately 21° C. and a relative atmospheric humidity of approximately 90%.
The test is evaluated 10 days after the inoculation.

Sphaerotheca fuliginea = test: Sphaerotheca test (cucumbers)/preventive; conditions: evaluated 7 days after inoculation
Experimental: After the spray coating has dried on, the plants are inoculated with an aqueous spore suspension of Sphaerotheca fuliginea. The plants are then placed in a greenhouse at approximately 23° C. and a relative atmospheric humidity of approximately 70%.
The test is evaluated 7 days after the inoculation.

Alternaria solani = test: Alternaria test (tomatoes)/preventive; conditions: Table C, preventive, application rate 50 ppm a.i., evaluated 3 days after inoculation
Experimental: After the spray coating has dried on, the plants are inoculated with an aqueous spore suspension of Alternaria solani. The plants are then placed in an incubation cabinet at approximately 20° C. and a relative atmospheric humidity of 100%.
The test is evaluated 3 days after the inoculation.

Botrytis cinerea = test: Botrytis test (beans)/preventive; conditions: Table D, preventive, application rate 10 ppm a.i., size of lesions 2 days after inoculation
Experimental: After the spray coating has dried on, 2 small pieces of agar covered with growth of Botrytis cinerea are placed on each leaf. The inoculated plants are placed in a darkened chamber at 20° C. and a relative atmospheric humidity of 100%.
2 days after the inoculation, the size of the lesions on the leaves is evaluated.

[1] = Table B2, preventive, application rate 2 ppm a.i.
[2] = Table B1, preventive, application rate 100 ppm a.i.

| Structure (SMILES) | Efficacy in % found (Sphaerotheca fuliginea; [1]) [%] | Efficacy in % found (Alternaria solani) [%] | Efficacy in % found (Sphaerotheca fuliginea; [2]) [%] | further results |
| --- | --- | --- | --- | --- |
| CC1COC(Cn2cncn2)(c2ccc(Oc3ccc(Cl)cc3)cc2Cl)O1 (stereo not shown) [F7 difenoconazole, difenoconazole] | 0 |  |  | Efficacy in % found (Venturia inaequalis; application rate 1 ppm a.i.): 20% |
| CC1(C(=O)Nc2ccc(O)c(Cl)c2Cl)CCCCC1 [F16 fenhexamid, fenhexamid] |  | 43 | 33 | Efficacy in % found (Botrytis cinerea): 88% |
| OC(Cc1ccccc1Cl)(Cn1nc[nH]c1=S)C1(Cl)CC1 (stereo not shown) [F41 prothioconazole, prothioconazole] | 38 |  |  |  |
| CCCN(CC)CC1COC2(CCC(C(C)(C)C)CC2)O1 (stereo not shown) [F46 spiroxamine, spiroxamine] |  | 62 | 38 |  |
| CC(C)(C)C(O)(CCc1ccc(Cl)cc1)Cn1cncn1 (stereo not shown) [F47 tebuconazole, tebuconazole] | 29 |  |  | Efficacy in % found (Venturia inaequalis; application rate 2 ppm a.i.): 13% |
